Measurements taken from ChEMBL document CHEMBL5465560, “Selectivity Literature for EUbOPEN Chemogenomic Library” (2024).
One block for each compound: values may come before it.

What was measured:
[1] = biological target: T1, Calcium/calmodulin-dependent protein kinase type IV (Homo sapiens) (UniProt Q16566); experiment: Selectivity interaction (Ambit KINOMEscan and KiNATiv profiling in Jurkat cells) EUB0000090b CAMK4; format: cell-based; details: at 1 µM
T1 sequence (whole entry): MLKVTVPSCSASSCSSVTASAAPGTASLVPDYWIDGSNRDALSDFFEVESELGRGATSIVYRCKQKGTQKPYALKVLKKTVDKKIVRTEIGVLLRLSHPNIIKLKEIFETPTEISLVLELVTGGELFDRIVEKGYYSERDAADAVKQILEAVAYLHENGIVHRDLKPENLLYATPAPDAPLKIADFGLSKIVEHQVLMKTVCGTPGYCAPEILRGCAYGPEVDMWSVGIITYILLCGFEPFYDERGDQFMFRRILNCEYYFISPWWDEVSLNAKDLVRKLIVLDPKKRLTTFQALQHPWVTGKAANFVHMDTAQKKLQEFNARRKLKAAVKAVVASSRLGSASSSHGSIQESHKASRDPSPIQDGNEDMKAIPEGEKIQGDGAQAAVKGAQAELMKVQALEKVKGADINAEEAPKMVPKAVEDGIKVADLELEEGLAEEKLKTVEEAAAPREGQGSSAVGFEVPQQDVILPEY

[2] = biological target: Tyrosine-protein kinase Fyn (Homo sapiens) (UniProt P06241); experiment: Selectivity interaction (Ambit KINOMEscan and KiNATiv profiling in Jurkat cells) EUB0000090b FYN; format: cell-based; details: at 1 µM
[3] = biological target: T2, Mitogen-activated protein kinase kinase kinase kinase 2 (Homo sapiens) (UniProt Q12851); experiment: Selectivity interaction (ActivX KiNativ screen (kinase selectivity in THP-1 cell lysates)) EUB0000639a MAP4K2; format: subcellular; details: lysate, at 0.2 µM
T2 sequence (whole entry): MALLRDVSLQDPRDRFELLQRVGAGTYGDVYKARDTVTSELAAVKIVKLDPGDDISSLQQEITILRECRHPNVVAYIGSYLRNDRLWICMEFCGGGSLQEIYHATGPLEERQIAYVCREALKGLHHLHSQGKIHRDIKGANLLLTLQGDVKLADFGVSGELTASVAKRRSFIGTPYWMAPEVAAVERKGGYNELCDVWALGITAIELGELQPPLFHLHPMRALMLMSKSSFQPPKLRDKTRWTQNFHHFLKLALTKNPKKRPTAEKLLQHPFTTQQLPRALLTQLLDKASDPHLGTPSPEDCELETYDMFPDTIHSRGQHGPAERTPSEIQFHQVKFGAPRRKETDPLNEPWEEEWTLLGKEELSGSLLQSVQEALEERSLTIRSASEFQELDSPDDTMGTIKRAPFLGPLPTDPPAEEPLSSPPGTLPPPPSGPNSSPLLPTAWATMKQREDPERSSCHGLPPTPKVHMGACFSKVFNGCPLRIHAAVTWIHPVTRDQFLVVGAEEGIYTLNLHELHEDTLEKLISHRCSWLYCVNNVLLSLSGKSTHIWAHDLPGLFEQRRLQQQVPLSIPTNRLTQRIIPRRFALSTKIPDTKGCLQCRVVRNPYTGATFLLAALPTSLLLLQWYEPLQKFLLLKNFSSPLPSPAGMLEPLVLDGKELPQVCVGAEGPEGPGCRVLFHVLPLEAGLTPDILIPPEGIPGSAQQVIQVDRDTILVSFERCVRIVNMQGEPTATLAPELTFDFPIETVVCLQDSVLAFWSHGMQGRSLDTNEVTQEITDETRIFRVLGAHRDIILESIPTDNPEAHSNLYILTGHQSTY

[4] = biological target: Serine/threonine-protein kinase Nek7 (Homo sapiens) (UniProt Q8TDX7); experiment: Selectivity interaction (ActivX KiNativ screen (kinase selectivity in THP-1 cell lysates)) EUB0000639a NEK7; format: subcellular; details: lysate
[5] = biological target: Histone-lysine N-methyltransferase SUV39H2 (Homo sapiens) (UniProt Q9H5I1); experiment: Selectivity interaction (Methyltransferase screen (radiometric assays, panel of 8 PRMTs, 21 protein lysine methyltransferases, 3 DNA methyltransferases, and one RNA methyltransferase)) EUB0000272b SUV39H2
[6] = biological target: Leukocyte tyrosine kinase receptor (Homo sapiens, UniProt P29376); details: at 10 µM
[7] = biological target: Dual specificity protein kinase CLK4 (Homo sapiens, UniProt Q9HAZ1); experiment: Selectivity interaction (KinomeScan (DiscoverX)) EUB0000092b CLK4; details: at 10 µM
[8] = biological target: T3, Mitogen-activated protein kinase kinase kinase 7 (Homo sapiens) (UniProt O43318); experiment: Selectivity interaction (ActivX KiNativ screen (ex vivo kinase selectivity in human PBMCs)) EUB0001619a MAP3K7; format: cell-based; details: PBMC, at 1 µM
T3 sequence (whole entry): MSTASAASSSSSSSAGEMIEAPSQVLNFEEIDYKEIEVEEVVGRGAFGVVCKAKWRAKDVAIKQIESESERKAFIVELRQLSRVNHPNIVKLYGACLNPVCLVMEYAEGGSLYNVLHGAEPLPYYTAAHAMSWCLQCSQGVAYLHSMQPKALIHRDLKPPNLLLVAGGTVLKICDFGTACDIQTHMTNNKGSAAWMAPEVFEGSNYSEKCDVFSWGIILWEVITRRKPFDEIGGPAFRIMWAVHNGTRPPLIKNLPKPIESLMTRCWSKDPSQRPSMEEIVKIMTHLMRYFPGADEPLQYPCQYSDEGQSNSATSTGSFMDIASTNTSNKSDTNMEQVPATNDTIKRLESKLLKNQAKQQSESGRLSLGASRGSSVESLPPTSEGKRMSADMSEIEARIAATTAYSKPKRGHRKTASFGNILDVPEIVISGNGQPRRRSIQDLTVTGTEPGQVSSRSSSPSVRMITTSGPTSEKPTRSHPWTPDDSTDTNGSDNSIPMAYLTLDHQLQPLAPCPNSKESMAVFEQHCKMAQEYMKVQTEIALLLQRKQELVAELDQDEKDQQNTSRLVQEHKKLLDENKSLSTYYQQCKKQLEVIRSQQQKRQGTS

[9] = biological target: T4, Serine/threonine-protein kinase VRK1 (Homo sapiens) (UniProt Q99986); experiment: Selectivity interaction (Kinase panel (DSF assay)) EUB0001558a VRK1
T4 sequence (whole entry): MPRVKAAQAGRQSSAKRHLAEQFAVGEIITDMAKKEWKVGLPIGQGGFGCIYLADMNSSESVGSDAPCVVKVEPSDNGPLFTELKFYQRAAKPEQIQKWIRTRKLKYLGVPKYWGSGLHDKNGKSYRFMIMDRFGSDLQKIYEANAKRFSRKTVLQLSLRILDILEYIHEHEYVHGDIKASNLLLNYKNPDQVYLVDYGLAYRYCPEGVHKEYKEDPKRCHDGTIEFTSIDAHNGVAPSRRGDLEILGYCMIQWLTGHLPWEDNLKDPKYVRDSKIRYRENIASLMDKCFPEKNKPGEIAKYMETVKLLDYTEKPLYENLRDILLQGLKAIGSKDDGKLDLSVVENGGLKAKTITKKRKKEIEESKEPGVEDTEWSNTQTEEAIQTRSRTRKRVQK

Serine/threonine-protein kinase Nek7 (Homo sapiens), sequence (Q8TDX7 whole entry, looked up): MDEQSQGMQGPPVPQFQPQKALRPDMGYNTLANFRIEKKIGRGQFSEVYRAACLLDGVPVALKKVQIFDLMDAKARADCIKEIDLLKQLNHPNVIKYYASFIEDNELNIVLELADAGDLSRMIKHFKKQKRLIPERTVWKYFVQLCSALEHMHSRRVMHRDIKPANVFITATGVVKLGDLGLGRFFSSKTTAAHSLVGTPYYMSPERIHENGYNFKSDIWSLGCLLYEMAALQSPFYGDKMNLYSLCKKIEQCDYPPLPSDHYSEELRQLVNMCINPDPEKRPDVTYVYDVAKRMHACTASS
Histone-lysine N-methyltransferase SUV39H2 (Homo sapiens), sequence (Q9H5I1 whole entry): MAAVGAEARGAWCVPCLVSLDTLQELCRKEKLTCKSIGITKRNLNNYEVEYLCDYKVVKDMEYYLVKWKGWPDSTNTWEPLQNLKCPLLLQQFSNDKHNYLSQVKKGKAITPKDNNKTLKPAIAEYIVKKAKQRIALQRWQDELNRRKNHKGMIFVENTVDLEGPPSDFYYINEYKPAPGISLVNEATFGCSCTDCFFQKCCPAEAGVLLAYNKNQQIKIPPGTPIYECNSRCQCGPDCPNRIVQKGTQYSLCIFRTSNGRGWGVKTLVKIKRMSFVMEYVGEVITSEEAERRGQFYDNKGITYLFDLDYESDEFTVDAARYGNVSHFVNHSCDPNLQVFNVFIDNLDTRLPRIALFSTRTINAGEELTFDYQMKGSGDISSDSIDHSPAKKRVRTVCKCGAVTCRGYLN
Leukocyte tyrosine kinase receptor, sequence (P29376 whole entry): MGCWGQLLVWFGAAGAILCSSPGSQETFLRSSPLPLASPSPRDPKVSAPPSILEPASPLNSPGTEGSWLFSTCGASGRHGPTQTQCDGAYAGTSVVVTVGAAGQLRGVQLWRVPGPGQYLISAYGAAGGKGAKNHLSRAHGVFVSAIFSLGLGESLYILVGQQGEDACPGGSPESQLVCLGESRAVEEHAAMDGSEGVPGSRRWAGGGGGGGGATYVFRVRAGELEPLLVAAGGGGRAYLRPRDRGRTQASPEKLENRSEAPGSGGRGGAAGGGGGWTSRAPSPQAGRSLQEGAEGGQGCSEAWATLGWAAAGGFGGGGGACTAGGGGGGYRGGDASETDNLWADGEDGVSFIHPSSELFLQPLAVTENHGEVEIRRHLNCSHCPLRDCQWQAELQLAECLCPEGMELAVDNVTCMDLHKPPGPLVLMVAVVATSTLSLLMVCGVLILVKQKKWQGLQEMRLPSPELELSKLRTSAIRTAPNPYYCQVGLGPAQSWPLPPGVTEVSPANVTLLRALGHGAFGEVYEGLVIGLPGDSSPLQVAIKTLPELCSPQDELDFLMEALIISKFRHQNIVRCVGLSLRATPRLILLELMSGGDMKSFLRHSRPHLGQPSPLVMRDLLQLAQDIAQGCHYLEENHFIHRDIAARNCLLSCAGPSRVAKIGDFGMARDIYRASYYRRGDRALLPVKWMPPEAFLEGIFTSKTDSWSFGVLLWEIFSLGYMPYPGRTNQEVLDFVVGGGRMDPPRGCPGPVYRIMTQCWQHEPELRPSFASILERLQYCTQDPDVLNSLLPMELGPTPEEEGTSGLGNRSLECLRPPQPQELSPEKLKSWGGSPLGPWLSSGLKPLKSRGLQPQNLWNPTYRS
Tyrosine-protein kinase Fyn (Homo sapiens), sequence (P06241 2-537 limits assumed): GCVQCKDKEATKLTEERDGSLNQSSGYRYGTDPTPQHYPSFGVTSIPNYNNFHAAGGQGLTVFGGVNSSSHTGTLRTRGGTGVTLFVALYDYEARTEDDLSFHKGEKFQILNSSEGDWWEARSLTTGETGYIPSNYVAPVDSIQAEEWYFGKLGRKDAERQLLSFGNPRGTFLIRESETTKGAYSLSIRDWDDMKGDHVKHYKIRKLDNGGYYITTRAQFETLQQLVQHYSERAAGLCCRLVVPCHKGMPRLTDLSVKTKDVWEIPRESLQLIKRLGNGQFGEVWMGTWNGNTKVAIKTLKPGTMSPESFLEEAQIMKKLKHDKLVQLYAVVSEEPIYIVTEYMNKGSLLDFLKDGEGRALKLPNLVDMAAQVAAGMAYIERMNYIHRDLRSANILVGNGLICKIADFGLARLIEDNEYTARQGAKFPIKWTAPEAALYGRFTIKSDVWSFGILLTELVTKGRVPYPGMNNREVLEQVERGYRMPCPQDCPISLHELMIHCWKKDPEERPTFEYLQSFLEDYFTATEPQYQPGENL
Dual specificity protein kinase CLK4, sequence (Q9HAZ1 whole entry, looked up): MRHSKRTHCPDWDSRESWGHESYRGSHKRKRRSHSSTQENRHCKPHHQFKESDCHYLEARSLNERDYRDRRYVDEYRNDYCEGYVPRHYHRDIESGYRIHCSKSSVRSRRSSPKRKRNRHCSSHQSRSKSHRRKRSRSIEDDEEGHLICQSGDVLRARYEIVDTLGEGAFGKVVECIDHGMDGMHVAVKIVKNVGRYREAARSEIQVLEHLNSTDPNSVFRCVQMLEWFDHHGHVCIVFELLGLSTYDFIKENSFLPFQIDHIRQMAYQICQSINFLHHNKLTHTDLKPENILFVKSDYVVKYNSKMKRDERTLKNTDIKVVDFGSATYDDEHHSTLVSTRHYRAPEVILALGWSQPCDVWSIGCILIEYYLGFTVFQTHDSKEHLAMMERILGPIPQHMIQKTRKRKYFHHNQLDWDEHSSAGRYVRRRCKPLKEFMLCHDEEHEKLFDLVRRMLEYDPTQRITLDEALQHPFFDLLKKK

Compound: CN(C)C/C=C/C(=O)Nc1ccc(C(=O)N2CCCC(Nc3ncc(Cl)c(-c4c[nH]c5ccccc45)n3)C2)cc1 (centres undefined)
% of control [1]: 69%
% of control [2]: 61%

% of inhibition [3]: 10.3%
% of inhibition ([4]; at 0.01 µM): -4%
% of inhibition ([4]; at 0.04 µM): -1.1%
% of inhibition ([4]; at 0.2 µM): -1.6%
% of inhibition ([4]; at 1 µM): 10.8%
% of inhibition ([4]; at 5 µM): -20%
Compound: CC[C@@H]1[C@H](F)C(=O)N[C@@H]1COc1nccc2cc(C(N)=O)c(OC)cc12 [ZIMLOVISERTIB]

% of activity ([5]; at 1 µM): 99.7%
% of activity ([5]; at 10 µM): 98%
Compound: Cc1cc(C)cc([C@H]2c3cc(C)ccc3NC(=O)CN2C(=O)c2ccc(Br)s2)c1

% of control [6]: 100%
Compound: CCN(CC)CCCCNc1ncc2cc(-c3cc(OC)cc(OC)c3)c(NC(=O)NC(C)(C)C)nc2n1

Compound: CCC(=O)N1CCN(c2ccc(-n3c(=O)ccc4cnc5ccc(-c6cnc7ccccc7c6)cc5c43)cc2C(F)(F)F)CC1
% of control [7]: 49%

Compound: N#Cc1cccc(-c2c[nH]c3ncnc(N4CCOCC4)c23)c1
% of inhibition [8]: 8%

Compound: CC(C)(O)[C@H](F)CN1Cc2cc(NC(=O)c3cnn4cccnc34)c(N3CCOCC3)cc2C1=O
dTM [9]: -0.3 K
